In ChEMBL document CHEMBL4138146, “A Schmidt rearrangement-mediated synthesis of novel tetrahydro-benzo[1,4]diazepin-5-ones as potential anticancer and antiprotozoal agents” (Eur J Med Chem, 2017):

Experiments:
Assay type in all cases: functional
K562 = experiment: Growth inhibition of human K562 cells assessed as cell growth at 10^-8 M incubated for 48 hrs by sulforhodamine B assay relative to control; conditions: K562, 48 h, read-out: Activity
A549 [1] = experiment: Growth inhibition of human A549/ATCC cells assessed as cell growth at 10^-8 M incubated for 48 hrs by sulforhodamine B assay relative to control; conditions: A549, 48 h, read-out: Activity
SW-620 [2] = experiment: Growth inhibition of human SW620 cells assessed as cell growth at 10^-8 M incubated for 48 hrs by sulforhodamine B assay relative to control; conditions: SW-620, 48 h, read-out: Activity
U-251 [3] = experiment: Growth inhibition of human U251 cells assessed as cell growth at 10^-8 M incubated for 48 hrs by sulforhodamine B assay relative to control; conditions: U-251, 48 h, read-out: Activity
SK-MEL-28 [4] = experiment: Growth inhibition of human SK-MEL-28 cells assessed as cell growth at 10^-8 M incubated for 48 hrs by sulforhodamine B assay relative to control; conditions: SK-MEL-28, 48 h, read-out: Activity
SK-MEL-5 = experiment: Growth inhibition of human SK-MEL-5 cells assessed as cell growth at 10^-8 M incubated for 48 hrs by sulforhodamine B assay relative to control; conditions: SK-MEL-5, 48 h, read-out: Activity
UACC-257 [5] = experiment: Growth inhibition of human UACC257 cells assessed as cell growth at 10^-8 M incubated for 48 hrs by sulforhodamine B assay relative to control; conditions: UACC-257, 48 h, read-out: Activity
NCI/ADR-RES = experiment: Growth inhibition of human NCI/ADR-RES cells assessed as cell growth at 10^-8 M incubated for 48 hrs by sulforhodamine B assay relative to control; conditions: read-out: Activity
TK-10 [6] = experiment: Growth inhibition of human TK10 cells assessed as cell growth at 10^-8 M incubated for 48 hrs by sulforhodamine B assay relative to control; conditions: TK-10, 48 h, read-out: Activity
CCRF-CEM = experiment: Growth inhibition of human CCRF-CEM cells assessed as cell growth at 10^-7 M incubated for 48 hrs by sulforhodamine B assay relative to control; conditions: read-out: Activity
HL-60(TB) = experiment: Growth inhibition of human HL-60(TB) cells assessed as cell growth at 10^-7 M incubated for 48 hrs by sulforhodamine B assay relative to control; conditions: HL-60, 48 h, read-out: Activity
A549 [7] = experiment: Growth inhibition of human A549/ATCC cells assessed as cell growth at 10^-7 M incubated for 48 hrs by sulforhodamine B assay relative to control; conditions: A549, 48 h, read-out: Activity
NCI-H226 = experiment: Growth inhibition of human NCI-H226 cells assessed as cell growth at 10^-7 M incubated for 48 hrs by sulforhodamine B assay relative to control; conditions: NCI-H226, 48 h, read-out: Activity
HCT-116 [8] = experiment: Growth inhibition of human HCT116 cells assessed as cell growth at 10^-7 M incubated for 48 hrs by sulforhodamine B assay relative to control; conditions: HCT-116, 48 h, read-out: Activity
HT-29 = experiment: Growth inhibition of human HT-29 cells assessed as cell growth at 10^-7 M incubated for 48 hrs by sulforhodamine B assay relative to control; conditions: HT-29, 48 h, read-out: Activity
SW-620 [9] = experiment: Growth inhibition of human SW620 cells assessed as cell growth at 10^-7 M incubated for 48 hrs by sulforhodamine B assay relative to control; conditions: SW-620, 48 h, read-out: Activity
SF-295 [10] = experiment: Growth inhibition of human SF295 cells assessed as cell growth at 10^-7 M incubated for 48 hrs by sulforhodamine B assay relative to control; conditions: SF-295, 48 h, read-out: Activity
SK-MEL-28 [11] = experiment: Growth inhibition of human SK-MEL-28 cells assessed as cell growth at 10^-7 M incubated for 48 hrs by sulforhodamine B assay relative to control; conditions: SK-MEL-28, 48 h, read-out: Activity
OVCAR-3 = experiment: Growth inhibition of human OVCAR3 cells assessed as cell growth at 10^-7 M incubated for 48 hrs by sulforhodamine B assay relative to control; conditions: OVCAR-3, 48 h, read-out: Activity
HOP-62 [12] = experiment: Growth inhibition of human HOP62 cells assessed as cell growth at 10^-6 M incubated for 48 hrs by sulforhodamine B assay relative to control; conditions: HOP-62, 48 h, read-out: Activity
HOP-92 = experiment: Growth inhibition of human HOP92 cells assessed as cell growth at 10^-6 M incubated for 48 hrs by sulforhodamine B assay relative to control; conditions: HOP-92, 48 h, read-out: Activity
HCT-116 [13] = experiment: Growth inhibition of human HCT116 cells assessed as cell growth at 10^-6 M incubated for 48 hrs by sulforhodamine B assay relative to control; conditions: HCT-116, 48 h, read-out: Activity
SF-295 [14] = experiment: Growth inhibition of human SF295 cells assessed as cell growth at 10^-6 M incubated for 48 hrs by sulforhodamine B assay relative to control; conditions: SF-295, 48 h, read-out: Activity
OVCAR-4 = experiment: Growth inhibition of human OVCAR4 cells assessed as cell growth at 10^-6 M incubated for 48 hrs by sulforhodamine B assay relative to control; conditions: OVCAR-4, 48 h, read-out: Activity
MDA-MB-231 = experiment: Growth inhibition of human MDA-MB-231 cells assessed as cell growth at 10^-6 M incubated for 48 hrs by sulforhodamine B assay relative to control; conditions: MDA-MB-231, 48 h, read-out: Activity
BT-549 [15] = experiment: Growth inhibition of human BT549 cells assessed as cell growth at 10^-6 M incubated for 48 hrs by sulforhodamine B assay relative to control; conditions: BT-549, 48 h, read-out: Activity
U-251 [16] = experiment: Growth inhibition of human U251 cells assessed as cell growth at 10^-5 M incubated for 48 hrs by sulforhodamine B assay relative to control; conditions: U-251, 48 h, read-out: Activity
UACC-257 [17] = experiment: Growth inhibition of human UACC257 cells assessed as cell growth at 10^-5 M incubated for 48 hrs by sulforhodamine B assay relative to control; conditions: UACC-257, 48 h, read-out: Activity
BT-549 [18] = experiment: Growth inhibition of human BT549 cells assessed as cell growth at 10^-5 M incubated for 48 hrs by sulforhodamine B assay relative to control; conditions: BT-549, 48 h, read-out: Activity
HOP-62 [19] = experiment: Growth inhibition of human HOP62 cells assessed as cell growth at 10^-4 M incubated for 48 hrs by sulforhodamine B assay relative to control; conditions: HOP-62, 48 h, read-out: Activity
COLO 205 = experiment: Growth inhibition of human COLO205 cells assessed as cell growth at 10^-4 M incubated for 48 hrs by sulforhodamine B assay relative to control; conditions: COLO 205, 48 h, read-out: Activity
ACHN = experiment: Growth inhibition of human ACHN cells assessed as cell growth at 10^-4 M incubated for 48 hrs by sulforhodamine B assay relative to control; conditions: read-out: Activity
TK-10 [20] = experiment: Growth inhibition of human TK10 cells assessed as cell growth at 10^-4 M incubated for 48 hrs by sulforhodamine B assay relative to control; conditions: TK-10, 48 h, read-out: Activity
PC-3 = experiment: Growth inhibition of human PC3 cells assessed as cell growth at 10^-4 M incubated for 48 hrs by sulforhodamine B assay relative to control; conditions: PC-3, 48 h, read-out: Activity
BT-549 [21] = experiment: Growth inhibition of human BT549 cells assessed as cell growth at 10^-4 M incubated for 48 hrs by sulforhodamine B assay relative to control; conditions: BT-549, 48 h, read-out: Activity

Question: For `CCCCOc1nc2ccccc2cc1C1CNC(=O)c2ccccc2N1` (stereo not given), which growth at 0.01 µM (K562) is on record?
Answer: The growth at 0.01 µM was 102%.

Question: And the growth at 0.01 µM (A549 [1])?
Answer: Its growth at 0.01 µM is 100%.

Question: And the growth at 0.01 µM (SW-620 [2])?
Answer: The growth at 0.01 µM was 96%.

Question: And the growth at 0.01 µM (U-251 [3])?
Answer: The growth at 0.01 µM was 99%.

Question: What about the growth at 0.01 µM (SK-MEL-28 [4]) of the same compound?
Answer: Its growth at 0.01 µM is 103%.

Question: What about the growth at 0.01 µM (SK-MEL-5) of the same compound?
Answer: The growth at 0.01 µM was 93%.

Question: What about the growth at 0.01 µM (UACC-257 [5]) of the same compound?
Answer: Its growth at 0.01 µM is 97%.

Question: What about the growth at 0.01 µM (NCI/ADR-RES) of the same compound?
Answer: Its growth at 0.01 µM is 94%.

Question: What about the growth at 0.01 µM (TK-10 [6]) of the same compound?
Answer: Its growth at 0.01 µM is 75%.

Question: What about the growth at 0.1 µM (CCRF-CEM) of the same compound?
Answer: The growth at 0.1 µM was 100%.

Question: What about the growth at 0.1 µM (HL-60(TB)) of the same compound?
Answer: The growth at 0.1 µM was 26%.

Question: And the growth at 0.1 µM (A549 [7])?
Answer: Its growth at 0.1 µM is 100%.

Question: What about the growth at 0.1 µM (NCI-H226) of the same compound?
Answer: Its growth at 0.1 µM is 79%.

Question: What about the growth at 0.1 µM (HCT-116 [8]) of the same compound?
Answer: The growth at 0.1 µM was 101%.

Question: And the growth at 0.1 µM (HT-29)?
Answer: Its growth at 0.1 µM is 98%.

Question: What about the growth at 0.1 µM (SW-620 [9]) of the same compound?
Answer: The growth at 0.1 µM was 96%.

Question: What about the growth at 0.1 µM (SF-295 [10]) of the same compound?
Answer: Its growth at 0.1 µM is 88%.

Question: And the growth at 0.1 µM (SK-MEL-28 [11])?
Answer: The growth at 0.1 µM was 98%.

Question: And the growth at 0.1 µM (OVCAR-3)?
Answer: The growth at 0.1 µM was 98%.

Question: And the growth at 1 µM (HOP-62 [12])?
Answer: The growth at 1 µM was 78%.

Question: And the growth at 1 µM (HOP-92)?
Answer: Its growth at 1 µM is 62%.

Question: And the growth at 1 µM (HCT-116 [13])?
Answer: Its growth at 1 µM is 75%.

Question: And the growth at 1 µM (SF-295 [14])?
Answer: The growth at 1 µM was 59%.

Question: And the growth at 1 µM (OVCAR-4)?
Answer: Its growth at 1 µM is 85%.

Question: What about the growth at 1 µM (MDA-MB-231) of the same compound?
Answer: Its growth at 1 µM is 85%.

Question: What about the growth at 1 µM (BT-549 [15]) of the same compound?
Answer: The growth at 1 µM was 84%.

Question: And the growth at 10 µM (U-251 [16])?
Answer: The growth at 10 µM was 12%.

Question: What about the growth at 10 µM (UACC-257 [17]) of the same compound?
Answer: The growth at 10 µM was 48%.

Question: What about the growth at 10 µM (BT-549 [18]) of the same compound?
Answer: The growth at 10 µM was 36%.

Question: And the growth at 100 µM (HOP-62 [19])?
Answer: Its growth at 100 µM is -59%.

Question: And the growth at 100 µM (COLO 205)?
Answer: The growth at 100 µM was -62%.

Question: And the growth at 100 µM (ACHN)?
Answer: The growth at 100 µM was -71%.

Question: What about the growth at 100 µM (TK-10 [20]) of the same compound?
Answer: Its growth at 100 µM is -62%.

Question: And the growth at 100 µM (PC-3)?
Answer: Its growth at 100 µM is -63%.

Question: And the growth at 100 µM (BT-549 [21])?
Answer: Its growth at 100 µM is -25%.
